For 13 compounds, IC50 results are on record in patent US20170121315A1, “HETEROBICYCLICALLY SUBSTITUTED 4-OXOBUTANE ACID DERIVATIVES AND USE THEREOF” (priority 2014, published 2017).

What all share (format): biochemical
One assay has as its target T1, MMP-7 (Homo sapiens, UniProt P09237).
T1 construct: purchased R&D Systems 907-MP
T1 sequence (P09237 95-267): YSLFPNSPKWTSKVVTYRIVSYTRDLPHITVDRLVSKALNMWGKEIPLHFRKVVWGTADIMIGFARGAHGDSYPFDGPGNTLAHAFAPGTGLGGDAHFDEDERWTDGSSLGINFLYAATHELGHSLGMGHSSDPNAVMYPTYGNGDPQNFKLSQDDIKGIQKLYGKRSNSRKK
Briefly: In vitro MMP-7 inhibition test. Conditions: human MMP-7. The source says:
(§1) The MMP-mediated amidolytic cleavage of a suitable peptide substrate leads to an increase in fluorescent light here too. The signal intensity of the fluorescent light is directly proportional to the enzyme activity. The active concentration of a test compound at which half the enzyme is inhibited (50% signal intensity of the fluorescent light) is reported as the IC50 value.
(§2) Recombinant MMP-7 (from R&D Systems, 907-MP) is chemically activated in accordance with the manufacturer's instructions using APMA. 1 μl of the test compound to be analysed (as a solution in DMSO, suitable concentrations e.g. 1 nM to 30 μM) is pipetted into 24 μl of activated enzyme (final concentration e.g. 0.5 nM) in reaction buffer (50 mM Tris/HCl pH 7.5, 10 mM CaCl2, 150 mM NaCl, 0.05% Brij®-35) in a white 384-hole microtiter plate (MTP). The enzymatic reaction is started by adding the intramolecularly quenched Mca-Pro-Leu-Gly-Leu-Dpa(Dnp)-Ala-Arg-NH2 substrate (final concentration e.g. 10 μM; R&D Systems, ES-001), so as to result in a total test volume of 50 μl. The course of the MMP-7 reaction is measured by measuring the fluorescence intensity (excitation 320 nm, emission 410 nm) over a suitable period of time (e.g. over 120 min at a temperature of 32° C.).

For a further assay, the target named is T2, MMP-3 (Homo sapiens, UniProt P08254).
T2 construct: purchased R&D Systems 513-MP
Briefly: In vitro MMP-3 inhibition test. Particulars: human MMP-3.
Text: as §1
as §2, with “MMP-3 (R&D” for “MMP-7 (from R&D”, “513-MP)” for “907-MP)”, “2” for “0.5”, “Mca-Arg-Pro-Lys-Pro-Val-Glu-Nval-Trp-Arg-Lys(Dnp)-NH2” for “Mca-Pro-Leu-Gly-Leu-Dpa(Dnp)-Ala-Arg-NH2”, “ES-002),” for “ES-001),”, “MMP-3” for “MMP-7”

Another assay addresses T3, MMP-16 (Homo sapiens, UniProt P51512).
T3 construct: purchased R&D Systems 1785-MP
The assay can be described thus: In vitro MMP-16 inhibition test. Particulars: human MMP-16.
Text: as §1
Recombinant MMP-16 (R&D Systems, 1785-MP) is enzymatically activated in accordance with the manufacturer's instructions using recombinant furin (R&D Systems, 1503-SE). 1 μl of the test compound to be analysed (as a solution in DMSO, suitable concentrations e.g. 1 nM to 30 μM) is pipetted into 24 μl of activated enzyme (final concentration e.g. 1 nM) in reaction buffer (50 mM Tris/HCl pH 7.5, 10 mM CaCl2, 150 mM NaCl, 0.05% Brij®-35) in a white 384-hole microtiter plate (MTP). The enzymatic reaction is started by adding the intramolecularly quenched Mca-Lys-Pro-Leu-Gly-Leu-Dpa(Dnp)-Ala-Arg-NH2 substrate (final concentration e.g. 5 μM; R&D Systems, ES-010), so as to result in a total test volume of 50 μl. The course of the MMP-16 reaction is measured by measuring the fluorescence intensity (excitation 320 nm, emission 410 nm) over a suitable period of time (e.g. over 120 min at a temperature of 32° C.).

In the next assay the target is T4, MMP-10 (Homo sapiens, UniProt P09238).
T4 construct: purchased R&D Systems 910-MP
Briefly: In vitro MMP-10 inhibition test. Conditions: human MMP-10.
Text: as §1
as §2, with “MMP-10 (R&D” for “MMP-7 (from R&D”, “910-MP)” for “907-MP)”, “2” for “0.5”, “Mca-Arg-Pro-Lys-Pro-Val-Glu-Nval-Trp-Arg-Lys(Dnp)-NH2” for “Mca-Pro-Leu-Gly-Leu-Dpa(Dnp)-Ala-Arg-NH2”, “ES-002),” for “ES-001),”, “MMP-10” for “MMP-7”

Structures are written as SMILES.

T3 sequence (P51512 120-564 limits assumed): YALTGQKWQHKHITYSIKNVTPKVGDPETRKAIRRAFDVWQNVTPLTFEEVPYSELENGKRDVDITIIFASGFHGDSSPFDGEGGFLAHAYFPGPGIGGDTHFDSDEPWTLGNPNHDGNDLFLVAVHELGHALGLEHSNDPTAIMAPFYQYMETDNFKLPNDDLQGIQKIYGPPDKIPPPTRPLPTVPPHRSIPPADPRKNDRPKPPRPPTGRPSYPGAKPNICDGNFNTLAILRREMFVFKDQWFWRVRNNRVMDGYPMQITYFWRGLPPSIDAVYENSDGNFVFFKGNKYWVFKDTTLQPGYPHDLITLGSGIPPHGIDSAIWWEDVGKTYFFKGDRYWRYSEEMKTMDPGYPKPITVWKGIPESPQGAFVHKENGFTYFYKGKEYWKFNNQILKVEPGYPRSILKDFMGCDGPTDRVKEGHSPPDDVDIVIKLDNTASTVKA
T4 sequence (P09238 99-476): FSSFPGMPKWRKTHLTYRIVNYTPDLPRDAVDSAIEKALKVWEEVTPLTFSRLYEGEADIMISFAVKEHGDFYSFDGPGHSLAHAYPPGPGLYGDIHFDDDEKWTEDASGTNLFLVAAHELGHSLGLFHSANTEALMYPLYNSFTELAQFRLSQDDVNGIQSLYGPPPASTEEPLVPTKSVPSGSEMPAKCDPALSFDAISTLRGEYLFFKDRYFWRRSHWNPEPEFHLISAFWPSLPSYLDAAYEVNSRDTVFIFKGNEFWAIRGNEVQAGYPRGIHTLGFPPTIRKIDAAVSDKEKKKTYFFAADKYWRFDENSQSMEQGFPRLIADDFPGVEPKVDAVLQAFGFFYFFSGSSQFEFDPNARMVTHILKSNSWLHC
T2 sequence (P08254 100-477): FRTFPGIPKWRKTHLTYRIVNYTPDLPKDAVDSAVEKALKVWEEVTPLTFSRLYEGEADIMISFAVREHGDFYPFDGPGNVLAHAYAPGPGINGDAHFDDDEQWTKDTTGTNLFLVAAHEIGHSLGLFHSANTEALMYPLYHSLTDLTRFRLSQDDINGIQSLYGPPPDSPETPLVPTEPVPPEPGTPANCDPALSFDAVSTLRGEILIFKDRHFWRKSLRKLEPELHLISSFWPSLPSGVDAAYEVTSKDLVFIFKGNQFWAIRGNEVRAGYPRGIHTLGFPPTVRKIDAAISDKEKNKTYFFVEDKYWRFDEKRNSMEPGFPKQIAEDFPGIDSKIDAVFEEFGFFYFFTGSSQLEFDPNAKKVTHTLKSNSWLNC

Regarding `O=C(CC(CCn1nnc2ccccc2c1=O)C(=O)O)c1cc2cc(OCCc3ccc(Cl)cc3)ccc2o1` (racemic) [Example 2, (+/−)-4-{5-[2-(4-Chlorophenyl)ethoxy]-1-benzofur-2-yl}-4-oxo-2-[2-(4-oxo-1,2,3-benzotriazin-3(4H)-yl)ethyl]butanoic acid], the half-maximal inhibitory concentration (IC50) is greater than 40 µM against MMP-7, 25 µM against MMP-3, greater than 40 µM on MMP-16 and 16 µM against MMP-10.
In the case of `O=C(CC(CCn1nnc2ccccc2c1=O)C(=O)O)c1cc2cc(OCC3CCOCC3)ccc2o1` (racemic) [Example 5, (+/−)-4-Oxo-2-[2-(4-oxo-1,2,3-benzotriazin-3(4H)-yl)ethyl]-4-[5-(tetrahydro-2H-pyran-4-ylmethoxy)-1-benzofur-2-yl]butanoic acid], the IC50 at MMP-7 was greater than 40 µM; against MMP-3 it was greater than 40 µM; on MMP-16 it was greater than 40 µM; against MMP-10, 34 µM.
Take `O=C(O)[C@@H]1[C@@H](Cn2nnc3ccc(C(F)(F)F)cc3c2=O)CC[C@H]1C(=O)c1cc2cc(OCCc3ccccc3)ccc2o1` (single isomer, unassigned; enantiomer 2) [Example 159, (+)-(1RS,2SR,5RS)-2-{[4-Oxo-6-(trifluoromethyl)-1,2,3-benzotriazin-3(4H)-yl]methyl}-5-{[5-(2-phenylethoxy)-1-benzofur-2-yl]carbonyl}cyclopentanecarboxylic acid (enantiomer 2)]: the IC50 was 0.3 µM against MMP-7, 2.2 µM at MMP-3, 3 µM against MMP-16 and 0.34 µM against MMP-10.
For the compound `O=C(CC(CCn1nnc2ccccc2c1=O)C(=O)O)c1cc2cc(OCc3cccc(Cl)c3)ccc2o1` (racemic) [Example 50, (+/−)-4-{5-[(3-Chlorobenzyl)oxy]-1-benzofur-2-yl}-4-oxo-2-[2-(4-oxo-1,2,3-benzotriazin-3(4H)-yl)ethyl]butanoic acid], the IC50 is greater than 40 µM at MMP-7, 34 µM on MMP-3, greater than 40 µM on MMP-16 and 20 µM at MMP-10.
For `O=C(CC(CCn1nnc2ccccc2c1=O)C(=O)O)c1coc2cc(OCC3CCCCC3)ccc12` (single isomer, unassigned; (+)) [Example 82, (+)-4-[6-(Cyclohexylmethoxy)-1-benzofur-3-yl]-4-oxo-2-[2-(4-oxo-1,2,3-benzotriazin-3(4H)-yl)ethyl]butanoic acid], the IC50 at MMP-7 was greater than 40 µM; against MMP-3, 16 µM; at MMP-16, greater than 40 µM; against MMP-10 it was 6.8 µM.
As for `O=C(CC(CCn1nnc2ccccc2c1=O)C(=O)O)c1noc2cc(OCc3cccnc3)ccc12` (racemic) [Example 148, (+/−)-4-Oxo-2-[2-(4-oxo-1,2,3-benzotriazin-3(4H)-yl)ethyl]-4-[6-(pyridin-3-ylmethoxy)-1,2-benzoxazol-3-yl]butanoic acid], the IC50 on MMP-7 was greater than 40 µM; against MMP-3, 9.1 µM; at MMP-16, greater than 40 µM; against MMP-10, 0.2 µM.
Regarding `CCCCCCCOc1ccc2c(C(=O)CC(CCn3nnc4ccccc4c3=O)C(=O)O)coc2c1` (racemic) [Example 101, (+/−)-4-[6-(Heptyloxy)-1-benzofur-3-yl]-4-oxo-2-[2-(4-oxo-1,2,3-benzotriazin-3(4H)-yl)ethyl]butanoic acid], the IC50 against MMP-7, on MMP-3, at MMP-16 and against MMP-10 was greater than 40 µM in each case.
As for `CCCCCOc1ccc2c(C(=O)CC(CCn3nnc4ccccc4c3=O)C(=O)O)coc2c1` (racemic) [Example 89, (+/−)-4-Oxo-2-[2-(4-oxo-1,2,3-benzotriazin-3(4H)-yl)ethyl]-4-[6-(pentyloxy)-1-benzofur-3-yl]butanoic acid], the IC50 against MMP-7 was greater than 40 µM; against MMP-3, greater than 40 µM; on MMP-16, greater than 40 µM; on MMP-10, 22 µM.
Regarding `O=C(CC(CCn1nnc2ccccc2c1=O)C(=O)O)c1coc2cc(OCC3CCCC3)ccc12` (single isomer, unassigned; (+)) [Example 80, (+)-4-[6-(Cyclopentylmethoxy)-1-benzofur-3-yl]-4-oxo-2-[2-(4-oxo-1,2,3-benzotriazin-3(4H)-yl)ethyl]butanoic acid], the IC50 against MMP-7 is greater than 40 µM; against MMP-3, 5.7 µM; against MMP-16, 21 µM; against MMP-10, 12 µM.
Taken in the same sequence, the figures for `O=C(CC(CCn1nnc2ccccc2c1=O)C(=O)O)c1cc2cc(OCCc3ccccc3)ccc2o1` (single isomer, unassigned; (+)) [Example 21, (+)-4-Oxo-2-[2-(4-oxo-1,2,3-benzotriazin-3(4H)-yl)ethyl]-4-[5-(2-phenylethoxy)-1-benzofur-2-yl]butanoic acid] were greater than 40 µM, 22 µM, greater than 40 µM and 13 µM.
Consider `O=C(CC(CCn1nnc2ccccc2c1=O)C(=O)O)c1cc2ccc(OCC3CC3)cc2s1` (single isomer, unassigned; (+)) [Example 112, (+)-4-[6-(Cyclopropylmethoxy)-1-benzothiophen-2-yl]-4-oxo-2-[2-(4-oxo-1,2,3-benzotriazin-3(4H)-yl)ethyl]butanoic acid], for which the IC50 against MMP-7 was found to be 3.2 µM; against MMP-3 it was 6.4 µM; against MMP-16, 37 µM; at MMP-10, 2.5 µM.
For `O=C(CC(CCn1nnc2ccc(C(F)(F)F)cc2c1=O)C(=O)O)c1noc2cc(OCc3ccccc3)ccc12` (racemic) [Example 154, (+/−)-4-[6-(Benzyloxy)-1,2-benzoxazol-3-yl]-4-oxo-2-{2-[4-oxo-6-(trifluoromethyl)-1,2,3-benzotriazin-3(4H)-yl]ethyl}butanoic acid], the IC50 at MMP-7 was determined as 18 µM; against MMP-3, 10 µM; on MMP-16 it was 13 µM; on MMP-10, 3.3 µM.
Take `O=C(CC(CCn1nnc2ccccc2c1=O)C(=O)O)c1coc2cc(OCCC3CCOCC3)ccc12` (racemic) [Example 74, (+/−)-4-Oxo-2-[2-(4-oxo-1,2,3-benzotriazin-3(4H)-yl)ethyl]-4-{6-[2-(tetrahydro-2H-pyran-4-yl)ethoxy]-1-benzofur-3-yl}butanoic acid]: the IC50 at MMP-7 is greater than 40 µM; against MMP-3, 16 µM; against MMP-16, 6.4 µM; on MMP-10, 2.1 µM.

What is called IC50 is the concentration needed to halve the response being measured.
